The values that follow come from US20260232808A1, “Dicarboxylic Acid Concentrates” (Vantage Specialty Ingredients, Inc., priority 2023, published 2026).

Entries after “also recorded” stand apart in the source; their conditions may differ.

For data set [1], the system named is Tumor Necrosis Factor-alpha (TNF-α). Briefly: ELISA for TNF-α in culture media of EpiDermFT tissue inoculated with C. acnes. It is filed as cell-based, human. The following applies: C. acnes ATCC 11827 48 hours, 24-hour treatment. The method, then:
(§1) EpiDermFT (EFT-400, MatTek Europe, Bratislava Slovak Republic) is a multilayered reconstituted model of the human dermis and epidermis, formed by culturing normal, human epidermal keratinocytes (NHEK) and normal, human dermal fibroblasts (NHFB). […] The dermal compartment is composed of a collagen matrix containing viable normal human dermal fibroblasts (NHDF). […] Testing was conducted on EpiDermFT in 12-well plates filled with culture medium without antibiotics at 37° C., 5% CO2, saturated humidity (90% RH). Inoculum-6 μL of lipid mix (olive oil and neutral triacylglycerol mixed 1:1) and 60 μL of C. acnes ATCC 11827, 10^7-10^8 CFU/mL-was applied to EpiDerm tissue for 48 hours. […] At the end of the treatment period, culture media was collected and stored at -20° C. for subsequent analysis by ELISA immunoassay for two inflammatory markers TNF-α and C[…] using commercially-available test kits-QuantikineTM ELISA Human Caspase-1/ICE Immunoassay and Human TNF-α Immunoassay both from R&D Systems, Inc. (Minneapolis, MN), Catalog Number DCA100 and DTAOOD, respectively.

Another data set has as its system Caspase-1 (CASP-1). Briefly: ELISA for Caspase-1 in culture media of EpiDermFT tissue inoculated with C. acnes. The following applies: C. acnes ATCC 11827 48 hours, 24-hour treatment. Format: cell-based, human. As to the method:
as §1
For orientation: An ELISA detects its analyte on a solid surface through an enzyme-linked reagent.

The conditions of data set [2]: cited from earlier work.
For data set [3] the following is noted: ethanol / ethyl alcohol, normal temperatures; cited from earlier work.

Turning to `O=C(O)c1ccccc1O` [Group 1, salicylic acid], the “TNF-α inflammatory response versus the C. acnes treated control” value in data set [1] is “increased inflammatory response”. Besides, the “CASP-1 inflammatory response versus the C. acnes treated control” value with Caspase-1 (CASP-1) is given as “increased inflammatory response”.

Turning to `O=C(O)CCCCCCCC(=O)O` [azelaic acid, Azelaic acid], the “solvent quality for azelaic acid” value in data set [2] (isopropanol) was “good”. Also, the “maximum azelaic acid dissolved in water” value in data set [2] (water) is reported as ≤ 0.24 % by weight (w/w). In data set [3], the “stability of azelaic acid in ethanol” value is on record as “unstable; also recorded: instability”.
